Source: patent US10800754B2, “Heterocyclic amide compound” (TAKEDA PHARMACEUTICAL COMPANY LIMITED, priority 2016, dated 2020)

Legend:
human PRS protein = biological target: T1, human PRS protein (Homo sapiens, UniProt P07814); experiment: PRS inhibitory activity (ATP/[32P]pyrophosphate exchange enzyme reaction); assay type: biochemical; conditions: 300 nM test compound; recombinant human PRS (EPRS 998-1512); read-out: inhibitory rate (%) of PRS
T1 construct: to construct His-Avi-hEPRS (998-1512) expression plasmid; His tag (N); Avi tag (N); TEV cleavage site (ENLYFQ/GS, encoded by forward primer hEPRS-TEV-NheF) (N); made in house; host or cells: E. coli BL21(DE3)
T1 sequence (P07814 998-1512): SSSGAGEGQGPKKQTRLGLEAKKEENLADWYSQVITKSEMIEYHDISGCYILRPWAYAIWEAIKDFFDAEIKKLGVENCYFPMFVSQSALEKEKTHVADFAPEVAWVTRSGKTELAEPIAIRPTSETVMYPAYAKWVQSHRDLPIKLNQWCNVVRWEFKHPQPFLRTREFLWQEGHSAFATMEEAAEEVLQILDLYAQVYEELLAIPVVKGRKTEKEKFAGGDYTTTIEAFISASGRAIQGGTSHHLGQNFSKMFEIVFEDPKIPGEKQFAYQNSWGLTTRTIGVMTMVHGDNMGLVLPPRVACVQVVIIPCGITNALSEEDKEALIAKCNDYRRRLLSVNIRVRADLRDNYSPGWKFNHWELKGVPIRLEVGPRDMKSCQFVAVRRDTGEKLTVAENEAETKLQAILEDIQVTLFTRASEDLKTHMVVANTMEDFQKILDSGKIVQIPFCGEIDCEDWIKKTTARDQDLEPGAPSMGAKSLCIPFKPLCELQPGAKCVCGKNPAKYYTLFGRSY
How it was run: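 His-Avi-tagged human EPRS catalytic domain (998-1512), E. coli-expressed, was preincubated 60 min with compound (enzyme added as 40 nM solution) in Tris pH 7.5, KCl, DTT, Tween 20 and MgCl2. The substrate solution contained 300 μM ATP, 160 μM L-proline, and 400 μM pyrophosphate with [32P]pyrophosphate; reaction ran 30 min at room temperature. Charcoal-captured label was counted, with enzyme-free wells taken as 100% inhibition.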

[1] = tested on: human ovarian cancer cell A2780; experiment: proliferation inhibitory activity against A2780 cells (CellTiter-Glo); assay type: cell-based; conditions: A2780, 72 h, 1 μM test compound, 3 days of culture, read-out: proliferation inhibitory rate (%) of A2780 cells

Compound: N#C[C@@]1(C2CC2)CCN(c2ccnc(NC(=O)Cc3cccc(-c4cnn(CC(F)(F)C(F)F)c4)c3)c2)C1=O [Example 95, N-(4-((3S)-3-cyano-3-cyclopropyl-2-oxopyrrolidin-1-yl)pyridin-2-yl)-2-(3-(1-(2,2,3,3-tetrafluoropropyl)-1H-pyrazol-4-yl)phenyl)acetamide]
- inhibition at 0.3 µM (human PRS protein): 99%
- inhibition at 1 µM [1]: 70%

Compound: CCc1cc(N2CC[C@@](C#N)(C3CC3)C2=O)cc(NC(=O)Cc2cc(F)cc(-c3cnn(C)c3)c2)n1 [Example 99, N-(4-((3S)-3-cyano-3-cyclopropyl-2-oxopyrrolidin-1-yl)-6-ethylpyridin-2-yl)-2-(3-fluoro-5-(1-methyl-1H-pyrazol-4-yl)phenyl)acetamide]
- inhibition at 0.3 µM (human PRS protein): 99%
- inhibition at 1 µM [1]: 70%

Compound: Cc1cc(N2CC[C@@](C#N)(C3CC3)C2=O)cc(NC(=O)Cc2cc(F)cc(-c3cn(C)nn3)c2)n1 [Example 57, N-(4-((3S)-3-cyano-3-cyclopropyl-2-oxopyrrolidin-1-yl)-6-methylpyridin-2-yl)-2-(3-fluoro-5-(1-methyl-1H-1,2,3-triazol-4-yl)phenyl)acetamide]
- inhibition at 0.3 µM (human PRS protein): 99%
- inhibition at 1 µM [1]: 94%

Compound: N#C[C@@]1(C2CC2)CCN(c2ccnc(NC(=O)Cc3cccc(-c4cnn(C5CC5)c4)c3)c2)C1=O [Example 42, N-(4-((3S)-3-cyano-3-cyclopropyl-2-oxopyrrolidin-1-yl)pyridin-2-yl)-2-(3-(1-cyclopropyl-1H-pyrazol-4-yl)phenyl)acetamide]
- inhibition at 0.3 µM (human PRS protein): 100%
- inhibition at 1 µM [1]: 84%

Compound: N#C[C@@]1(C2CC2)CCN(c2ccnc(NC(=O)Cc3cccc(-c4cnn(C(F)F)c4)c3)c2)C1=O [Example 44, N-(4-((3S)-3-cyano-3-cyclopropyl-2-oxopyrrolidin-1-yl)pyridin-2-yl)-2-(3-(1-(difluoromethyl)-1H-pyrazol-4-yl)phenyl)acetamide]
- inhibition at 0.3 µM (human PRS protein): 100%
- inhibition at 1 µM [1]: 86%

Compound: CC(C)(C)OC(=O)n1cc(-c2cccc(CC(=O)Nc3cc(N4CC[C@@](C#N)(C5CC5)C4=O)ccn3)c2)cn1 [Example 55, tert-butyl 4-(3-(2-((4-((3S)-3-cyano-3-cyclopropyl-2-oxopyrrolidin-1-yl)pyridin-2-yl)amino)-2-oxoethyl)phenyl)-1H-pyrazole-1-carboxylate]
- inhibition at 0.3 µM (human PRS protein): 99%
- inhibition at 1 µM [1]: 67%

Compound: N#C[C@@]1(C2CC2)CCN(c2ccnc(NC(=O)Cc3cccc(-c4ccncc4)c3)c2)C1=O [Example 29, N-(4-((3S)-3-cyano-3-cyclopropyl-2-oxopyrrolidin-1-yl)pyridin-2-yl)-2-(3-(pyridin-4-yl)phenyl)acetamide]
- inhibition at 0.3 µM (human PRS protein): 97%
- inhibition at 1 µM [1]: 60%

Compound: Cc1cc(N2CC[C@@](C#N)(C3CC3)C2=O)cc(NC(=O)Cc2cccc(-c3cnn(C)c3)c2)n1 [Example 30, N-(4-((3S)-3-cyano-3-cyclopropyl-2-oxopyrrolidin-1-yl)-6-methylpyridin-2-yl)-2-(3-(1-methyl-1H-pyrazol-4-yl)phenyl)acetamide]
- inhibition at 0.3 µM (human PRS protein): 99%
- inhibition at 1 µM [1]: 99%

Compound: N#C[C@@]1(C2CC2)CCN(c2ccnc(NC(=O)Cc3cccc(-c4cnn(CC5CC(F)(F)C5)c4)c3)c2)C1=O [Example 87, N-(4-((3S)-3-cyano-3-cyclopropyl-2-oxopyrrolidin-1-yl)pyridin-2-yl)-2-(3-(1-((3,3-difluorocyclobutyl)-methyl)-1H-pyrazol-4-yl)phenyl)acetamide]
- inhibition at 0.3 µM (human PRS protein): 100%
- inhibition at 1 µM [1]: 74%

Compound: N#C[C@@]1(C2CC2)CCN(c2ccnc(NC(=O)Cc3cccc(-c4cnn(Cc5ccccc5)c4)c3)c2)C1=O [Example 79, 2-(3-(1-benzyl-1H-pyrazol-4-yl)phenyl)-N-(4-((3S)-3-cyano-3-cyclopropyl-2-oxopyrrolidin-1-yl)pyridin-2-yl)acetamide]
- inhibition at 0.3 µM (human PRS protein): 100%
- inhibition at 1 µM [1]: 65%
